Source: the kinase profiling compilation of Christmann-Franck et al. (2016)

Experiments:
Assay in all cases: radiometric filter-binding kinase assay, Kinase HotSpot
Conditions in all cases: compound 0.5 µM; ATP 10 µM
[1] = target: CHEK2 (human) (UniProt O96017)
[2] = target: NUAK2 (human) (UniProt Q9H093)
[3] = target: PKN2 (human) (UniProt Q16513)
[4] = target: EPHA4 (human) (UniProt P54764)
[5] = target: VRK1 (human) (UniProt Q99986)
[6] = target: GRK7 (human) (UniProt Q8WTQ7)
[7] = target: MELK (human) (UniProt Q14680)
MELK (human), sequence (Q14680 whole entry, looked up): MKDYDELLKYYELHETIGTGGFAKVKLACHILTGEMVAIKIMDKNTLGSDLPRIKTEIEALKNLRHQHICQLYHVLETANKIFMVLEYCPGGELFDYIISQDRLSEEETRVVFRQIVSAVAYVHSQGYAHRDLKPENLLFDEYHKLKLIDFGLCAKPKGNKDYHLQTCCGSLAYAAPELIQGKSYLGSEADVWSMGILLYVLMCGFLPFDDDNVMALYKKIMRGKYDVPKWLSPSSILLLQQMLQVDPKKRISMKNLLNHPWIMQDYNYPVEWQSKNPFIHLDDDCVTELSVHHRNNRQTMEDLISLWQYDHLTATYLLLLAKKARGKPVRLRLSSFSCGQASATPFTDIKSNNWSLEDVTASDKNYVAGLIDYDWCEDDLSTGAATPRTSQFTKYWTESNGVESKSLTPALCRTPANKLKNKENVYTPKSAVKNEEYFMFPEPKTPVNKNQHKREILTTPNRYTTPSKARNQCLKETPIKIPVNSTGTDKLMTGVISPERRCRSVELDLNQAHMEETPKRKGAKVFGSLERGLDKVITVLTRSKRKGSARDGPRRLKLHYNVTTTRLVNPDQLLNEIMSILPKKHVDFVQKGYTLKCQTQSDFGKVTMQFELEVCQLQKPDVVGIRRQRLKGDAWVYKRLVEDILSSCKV

[8] = target: KIT (human) (UniProt P10721)
[9] = target: CAMK2A (human) (UniProt Q9UQM7)
[10] = target: STK3 (human) (UniProt Q13188)
[11] = target: PHKG2 (human) (UniProt P15735)
[12] = target: ULK1 (human) (UniProt O75385)
[13] = target: RPS6KB2 (human) (UniProt Q9UBS0)
[14] = target: RPS6KA3 KD1 KD2 (human) (UniProt P51812)
[15] = target: MYLK (human) (UniProt Q15746)
[16] = target: MKNK2 (human) (UniProt Q9HBH9)
[17] = target: DYRK2 (human) (UniProt Q92630)
[18] = target: GSG2 (human) (UniProt Q8TF76)
GSG2 (human), sequence (Q8TF76 whole entry, looked up): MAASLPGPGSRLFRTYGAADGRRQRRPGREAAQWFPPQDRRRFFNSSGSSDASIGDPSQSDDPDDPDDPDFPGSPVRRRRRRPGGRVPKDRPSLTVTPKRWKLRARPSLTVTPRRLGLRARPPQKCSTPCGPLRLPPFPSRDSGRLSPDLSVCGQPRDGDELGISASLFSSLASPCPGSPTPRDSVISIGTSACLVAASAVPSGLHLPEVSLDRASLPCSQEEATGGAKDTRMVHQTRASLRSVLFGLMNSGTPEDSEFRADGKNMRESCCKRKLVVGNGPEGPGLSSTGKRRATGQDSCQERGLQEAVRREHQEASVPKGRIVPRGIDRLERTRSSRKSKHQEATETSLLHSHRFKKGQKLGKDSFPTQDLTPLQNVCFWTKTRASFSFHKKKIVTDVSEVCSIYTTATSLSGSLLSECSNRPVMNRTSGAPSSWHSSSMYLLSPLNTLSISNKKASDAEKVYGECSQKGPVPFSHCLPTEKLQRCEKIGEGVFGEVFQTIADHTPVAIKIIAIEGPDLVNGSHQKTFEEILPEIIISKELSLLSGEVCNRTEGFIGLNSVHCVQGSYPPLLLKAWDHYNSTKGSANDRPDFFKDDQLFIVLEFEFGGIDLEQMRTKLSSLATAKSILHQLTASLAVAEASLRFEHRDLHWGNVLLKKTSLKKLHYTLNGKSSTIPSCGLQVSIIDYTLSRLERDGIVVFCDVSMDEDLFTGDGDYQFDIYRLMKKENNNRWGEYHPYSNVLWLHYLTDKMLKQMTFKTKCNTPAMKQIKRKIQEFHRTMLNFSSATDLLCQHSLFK

[19] = target: PAK4 (human) (UniProt O96013)
[20] = target: AXL (human) (UniProt P30530)
[21] = target: ZAP70 (human) (UniProt P43403)
ZAP70 (human), sequence (P43403 whole entry, looked up): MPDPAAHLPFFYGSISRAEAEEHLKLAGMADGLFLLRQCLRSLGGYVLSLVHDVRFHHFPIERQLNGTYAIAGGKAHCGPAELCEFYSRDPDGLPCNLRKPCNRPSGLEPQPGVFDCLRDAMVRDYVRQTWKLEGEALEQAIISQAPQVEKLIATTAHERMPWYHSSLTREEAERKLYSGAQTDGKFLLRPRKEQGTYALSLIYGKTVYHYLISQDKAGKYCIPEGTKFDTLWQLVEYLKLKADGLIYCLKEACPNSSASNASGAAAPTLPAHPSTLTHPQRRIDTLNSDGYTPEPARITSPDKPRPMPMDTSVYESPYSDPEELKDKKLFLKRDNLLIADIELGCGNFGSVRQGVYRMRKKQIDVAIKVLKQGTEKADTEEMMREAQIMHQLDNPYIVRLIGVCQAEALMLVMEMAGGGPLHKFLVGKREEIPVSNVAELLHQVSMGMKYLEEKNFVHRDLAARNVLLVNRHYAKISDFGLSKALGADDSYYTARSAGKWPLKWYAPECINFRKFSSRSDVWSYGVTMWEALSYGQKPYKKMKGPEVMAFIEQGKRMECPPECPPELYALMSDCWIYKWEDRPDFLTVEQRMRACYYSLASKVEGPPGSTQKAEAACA

[22] = target: CDK6 CCND3 (human) (UniProt P30281+Q00534)
[23] = target: SRPK2 (human) (UniProt P78362)
[24] = target: TAOK3 (human) (UniProt Q9H2K8)
[25] = target: CLK2 (human) (UniProt P49760)
[26] = target: HIPK4 (human) (UniProt Q8NE63)
[27] = target: MAPK14 (human) (UniProt Q16539)
[28] = target: MATK (human) (UniProt P42679)
[29] = target: DMPK (human) (UniProt Q09013)
[30] = target: ALK (human) (UniProt Q9UM73)
ALK (human), sequence (Q9UM73 whole entry, looked up): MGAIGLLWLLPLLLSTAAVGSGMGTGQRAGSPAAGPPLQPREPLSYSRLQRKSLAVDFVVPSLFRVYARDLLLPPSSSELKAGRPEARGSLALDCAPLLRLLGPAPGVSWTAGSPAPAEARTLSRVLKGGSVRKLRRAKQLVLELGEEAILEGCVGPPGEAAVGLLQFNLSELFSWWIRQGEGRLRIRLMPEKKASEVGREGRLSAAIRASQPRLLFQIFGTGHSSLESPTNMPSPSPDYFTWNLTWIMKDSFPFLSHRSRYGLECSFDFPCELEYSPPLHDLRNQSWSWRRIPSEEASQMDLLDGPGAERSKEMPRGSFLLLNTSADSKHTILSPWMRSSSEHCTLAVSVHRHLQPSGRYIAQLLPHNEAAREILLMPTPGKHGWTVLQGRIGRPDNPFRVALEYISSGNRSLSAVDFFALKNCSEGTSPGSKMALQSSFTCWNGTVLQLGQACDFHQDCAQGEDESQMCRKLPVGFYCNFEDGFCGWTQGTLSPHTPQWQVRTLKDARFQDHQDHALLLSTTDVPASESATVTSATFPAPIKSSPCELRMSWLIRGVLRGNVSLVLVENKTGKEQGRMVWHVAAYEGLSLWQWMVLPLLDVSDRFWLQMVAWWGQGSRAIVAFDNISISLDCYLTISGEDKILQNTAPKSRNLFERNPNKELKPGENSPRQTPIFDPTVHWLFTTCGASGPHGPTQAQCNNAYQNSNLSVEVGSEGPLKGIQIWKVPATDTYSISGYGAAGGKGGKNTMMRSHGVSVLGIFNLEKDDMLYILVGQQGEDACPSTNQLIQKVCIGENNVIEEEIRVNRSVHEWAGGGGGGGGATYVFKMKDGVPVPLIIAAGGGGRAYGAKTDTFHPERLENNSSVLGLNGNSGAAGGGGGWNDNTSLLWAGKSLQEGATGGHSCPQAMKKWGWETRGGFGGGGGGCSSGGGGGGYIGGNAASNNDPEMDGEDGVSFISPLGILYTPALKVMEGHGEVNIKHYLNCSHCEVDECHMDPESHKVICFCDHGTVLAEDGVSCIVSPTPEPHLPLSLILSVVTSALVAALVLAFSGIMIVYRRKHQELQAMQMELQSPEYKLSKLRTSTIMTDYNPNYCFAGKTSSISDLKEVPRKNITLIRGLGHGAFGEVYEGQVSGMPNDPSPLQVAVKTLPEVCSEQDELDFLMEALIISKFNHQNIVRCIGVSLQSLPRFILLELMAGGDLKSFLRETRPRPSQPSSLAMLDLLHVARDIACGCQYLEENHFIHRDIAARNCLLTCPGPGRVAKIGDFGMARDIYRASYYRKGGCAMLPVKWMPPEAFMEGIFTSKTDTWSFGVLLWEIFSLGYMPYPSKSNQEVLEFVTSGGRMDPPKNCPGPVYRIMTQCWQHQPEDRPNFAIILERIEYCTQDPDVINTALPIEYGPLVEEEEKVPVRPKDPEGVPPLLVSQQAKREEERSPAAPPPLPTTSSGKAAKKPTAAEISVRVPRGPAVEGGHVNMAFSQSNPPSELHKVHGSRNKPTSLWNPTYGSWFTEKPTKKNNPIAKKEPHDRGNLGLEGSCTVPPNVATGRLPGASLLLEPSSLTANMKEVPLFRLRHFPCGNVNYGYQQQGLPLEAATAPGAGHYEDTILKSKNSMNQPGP

[31] = target: TXK (human) (UniProt P42681)
[32] = target: BRAF (human) (UniProt P15056)
[33] = target: AURKB (human) (UniProt Q96GD4)
AURKB (human), sequence (Q96GD4 whole entry, looked up): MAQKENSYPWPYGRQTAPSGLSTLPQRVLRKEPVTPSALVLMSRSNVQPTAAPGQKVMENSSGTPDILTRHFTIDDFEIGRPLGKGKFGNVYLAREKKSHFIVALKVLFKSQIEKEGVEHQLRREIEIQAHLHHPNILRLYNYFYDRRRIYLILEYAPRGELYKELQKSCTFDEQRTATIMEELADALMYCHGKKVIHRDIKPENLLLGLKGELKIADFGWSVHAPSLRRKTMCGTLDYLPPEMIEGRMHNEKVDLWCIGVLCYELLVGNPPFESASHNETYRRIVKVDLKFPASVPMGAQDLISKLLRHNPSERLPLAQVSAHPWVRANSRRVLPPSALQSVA

[34] = target: BTK (human) (UniProt Q06187)
[35] = target: CDK6 CCND1 (human) (UniProt Q00534+P24385)
[36] = target: NLK (human) (UniProt Q9UBE8)
[37] = target: PIM1 (human) (UniProt P11309)
[38] = target: CDC42BPA (human) (UniProt Q5VT25)
[39] = target: PAK6 (human) (UniProt Q9NQU5)
[40] = target: STK17A (human) (UniProt Q9UEE5)
STK17A (human), sequence (Q9UEE5 whole entry, looked up): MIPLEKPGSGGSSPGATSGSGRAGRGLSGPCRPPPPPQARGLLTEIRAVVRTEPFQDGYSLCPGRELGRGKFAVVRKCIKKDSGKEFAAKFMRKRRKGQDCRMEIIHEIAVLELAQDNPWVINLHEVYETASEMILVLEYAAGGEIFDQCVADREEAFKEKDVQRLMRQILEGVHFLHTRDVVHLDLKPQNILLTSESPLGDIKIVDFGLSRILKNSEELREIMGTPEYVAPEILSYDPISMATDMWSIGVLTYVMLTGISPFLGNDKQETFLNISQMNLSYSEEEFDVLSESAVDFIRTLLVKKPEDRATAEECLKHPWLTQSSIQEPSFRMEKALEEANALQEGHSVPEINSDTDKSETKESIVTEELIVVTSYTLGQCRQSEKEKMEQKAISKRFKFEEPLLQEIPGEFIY

GRK7 (human), sequence (Q8WTQ7 whole entry, looked up): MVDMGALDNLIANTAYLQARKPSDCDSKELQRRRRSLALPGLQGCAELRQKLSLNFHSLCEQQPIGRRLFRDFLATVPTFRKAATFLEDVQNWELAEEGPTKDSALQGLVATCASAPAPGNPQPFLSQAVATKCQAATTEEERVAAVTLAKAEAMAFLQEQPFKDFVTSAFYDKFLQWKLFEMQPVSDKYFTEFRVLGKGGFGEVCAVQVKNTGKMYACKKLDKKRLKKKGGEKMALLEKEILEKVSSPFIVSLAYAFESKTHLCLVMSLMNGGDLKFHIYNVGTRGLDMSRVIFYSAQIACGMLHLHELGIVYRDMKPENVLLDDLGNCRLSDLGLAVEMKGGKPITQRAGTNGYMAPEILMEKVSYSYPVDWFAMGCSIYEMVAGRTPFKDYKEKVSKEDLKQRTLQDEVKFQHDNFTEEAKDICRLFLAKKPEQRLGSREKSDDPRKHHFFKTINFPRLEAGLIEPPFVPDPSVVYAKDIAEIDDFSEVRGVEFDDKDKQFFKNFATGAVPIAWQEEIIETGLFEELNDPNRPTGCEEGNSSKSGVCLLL

Row | SMILES | residual activity [1] | residual activity [2] | residual activity [3] | residual activity [4] | residual activity [5] | residual activity [6] | residual activity [7] | residual activity [8] | residual activity [9] | residual activity [10] | residual activity [11] | residual activity [12] | residual activity [13] | residual activity [15] | residual activity [16] | residual activity [17] | residual activity [18] | residual activity [20] | residual activity [21] | residual activity [22] | also measured
1 | Nc1ncnc2c1c(-c1ccc(Oc3ccccc3)cc1)cn2C1CCCC1 | 76.6% | 96.8% | 104% | 87.5% | 84.8% | 114% | 101% | 21.6% | 113% | 97.7% | 96.9% | 106% | 107% | 98.4% | 94.9% | 96.5% | 94.6% | 113% | 102% | 97.2% | residual activity [14]: 96.9%; residual activity [19]: 101%; residual activity [23]: 93.4%; residual activity [24]: 92.9%; residual activity [25]: 95.2%; residual activity [26]: 102%; residual activity [27]: 76.3%; residual activity [28]: 90%; residual activity [29]: 136%; residual activity [30]: 80.6%; residual activity [31]: 17.3%; residual activity [32]: 85.4%; residual activity [33]: 88.6%; residual activity [34]: 4.56%; residual activity [35]: 98.2%; residual activity [36]: 96.9%; residual activity [37]: 92.4%; residual activity [38]: 105%; residual activity [39]: 88.2%; residual activity [40]: 96.3%
2 | CC#CC(=O)Nc1cc2c(Nc3ccc(F)c(Cl)c3)ncnc2cn1 | 98.8% | 95.4% | 95% | 94.6% | 87.8% | 106% | 101% | 98.5% | 108% | 106% | 99% | 96.6% | 97.2% | 98.8% | 66% | 91.3% | 101% | 100% | 90.4% | 103% | residual activity [14]: 97.5%; residual activity [19]: 107%; residual activity [23]: 69.2%; residual activity [24]: 110%; residual activity [25]: 100%; residual activity [26]: 99.7%; residual activity [27]: 101%; residual activity [28]: 95.8%; residual activity [29]: 104%; residual activity [30]: 103%; residual activity [31]: 1.66%; residual activity [32]: 82.1%; residual activity [33]: 101%; residual activity [34]: 2.88%; residual activity [35]: 99%; residual activity [36]: 99.7%; residual activity [37]: 98.6%; residual activity [38]: 93.1%; residual activity [39]: 96.9%; residual activity [40]: 92.9%
3 | CCN(CC)CCNC(=O)c1c(C)[nH]c(/C=C2\C(=O)Nc3ccc(F)cc32)c1C | 7.13% | 65% | 89.1% | 84.5% | 97.3% | 71.3% | 10.4% | 8.74% | 14.5% | 24.8% | 20.6% | 16.3% | 113% | 25.6% | 99.3% | 82.6% | 53.2% | 27.4% | 97.2% | 59.7% | residual activity [14]: 35.5%; residual activity [19]: 80.9%; residual activity [23]: 95%; residual activity [24]: 82.9%; residual activity [25]: 13.6%; residual activity [26]: 74.7%; residual activity [27]: 105%; residual activity [28]: 88.8%; residual activity [29]: 97.7%; residual activity [30]: 16.6%; residual activity [31]: 92.6%; residual activity [32]: 106%; residual activity [33]: 48.7%; residual activity [34]: 50.2%; residual activity [35]: 50.5%; residual activity [36]: 105%; residual activity [37]: 94.4%; residual activity [38]: 89.5%; residual activity [39]: 107%; residual activity [40]: 26.7%
4 | c1ccc(-c2n[nH]c3c2oc2ccccc23)cc1 | 101% | 95.2% | 97.5% | 95.5% | 83.1% | 102% | 77% | 38% | 110% | 49.6% | 112% | 124% | 99.8% | 86.1% | 70% | 95.4% | 99.3% | 101% | 89% | 91.6% | residual activity [14]: 109%; residual activity [19]: 111%; residual activity [23]: 95%; residual activity [24]: 94.8%; residual activity [25]: 94.8%; residual activity [26]: 103%; residual activity [27]: 102%; residual activity [28]: 94%; residual activity [29]: 99.5%; residual activity [30]: 95.9%; residual activity [31]: 81.5%; residual activity [32]: 96.9%; residual activity [33]: 50.8%; residual activity [34]: 96.4%; residual activity [35]: 90.4%; residual activity [36]: 92.3%; residual activity [37]: 83.3%; residual activity [38]: 87.4%; residual activity [39]: 87.5%; residual activity [40]: 84.4%
5 | O=S(=O)(c1cccc2cnccc12)N1CCCNCC1 | 98.9% | 83.5% | 103% | 98.5% | 87.6% | 114% | 78.6% | 96.7% | 99.9% | 90% | 95.4% | 103% | 81.9% | 97.4% | 72% | 97.9% | 86.6% | 97.2% | 108% | 95.8% | residual activity [23]: 83.9%; residual activity [24]: 97.3%; residual activity [25]: 95.1%; residual activity [26]: 103%; residual activity [27]: 104%; residual activity [28]: 99.6%; residual activity [30]: 119%; residual activity [31]: 84.1%; residual activity [32]: 97.7%; residual activity [33]: 98.8%; residual activity [34]: 96.5%; residual activity [35]: 86.4%; residual activity [36]: 97.3%; residual activity [37]: 77%; residual activity [38]: 104%; residual activity [39]: 87%; residual activity [40]: 98.2%
